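Interpolation was linear, between the two tested concentrations surrounding the appropriate level; five concentrations were tested over 48 hours in 96-well plates. Abbreviation: GI50, concentration required for 50% inhibition of growth. TGI is the concentration that stops growth completely.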
Tests used:
Test in all cases: NCI tumour cell line growth inhibition, 48 h
COLO 205 colon = test system: COLO 205 colon
DLD-1 colon = test system: DLD-1 colon
DMS 114 small cell lung = test system: DMS 114 small cell lung
DMS 273 small cell lung = test system: DMS 273 small cell lung
HCT-15 colon = test system: HCT-15 colon
HOP-18 NSCLC = test system: HOP-18 NSCLC
KM20L2 colon = test system: KM20L2 colon
LOX IMVI melanoma = test system: LOX IMVI melanoma
M19-MEL melanoma = test system: M19-MEL melanoma
SK-MEL-28 melanoma = test system: SK-MEL-28 melanoma
SNB-78 CNS = test system: SNB-78 CNS
UACC-62 melanoma = test system: UACC-62 melanoma
LXFL 529 NSCLC = test system: LXFL 529 NSCLC
XF 498 CNS = test system: XF 498 CNS

| SMILES | GI50 (COLO 205 colon) [pM] | TGI (DLD-1 colon) [µM] | TGI (DMS 114 small cell lung) [µM] | TGI (DMS 273 small cell lung) [µM] | GI50 (HCT-15 colon) [pM] | TGI (HOP-18 NSCLC) [µM] | TGI (KM20L2 colon) [µM] | TGI (LOX IMVI melanoma) [µM] | TGI (M19-MEL melanoma) [µM] | GI50 (SK-MEL-28 melanoma) [pM] | TGI (SNB-78 CNS) [µM] | GI50 (UACC-62 melanoma) [pM] | TGI (COLO 205 colon) [µM] | TGI (HCT-15 colon) [µM] | TGI (LXFL 529 NSCLC) [µM] | TGI (SK-MEL-28 melanoma) [µM] | TGI (UACC-62 melanoma) [µM] | TGI (XF 498 CNS) [µM] |
| --- | --- | --- | --- | --- | --- | --- | --- | --- | --- | --- | --- | --- | --- | --- | --- | --- | --- | --- |
| CCC(/C=C/C1OC(=O)C=CC1C)=C\C(C)C/C=C/C(C)=C/C(C)C(=O)C(C)C(O)C(C)C/C(C)=C/C(=O)O (stereo not given) | 7.52 | 35.8 | 4.18 | 27.1 | 1.72 | 16.3 | 8.33 | 0.00119 | 6.49 | 4.51 | 14.3 | 2.23 |  |  |  |  |  |  |
| S=c1sc2c(Cl)nc(Cl)nc2n1-c1ccccc1 |  | 29.9 | 27.3 | > 100 |  | > 100 | > 100 | > 100 | 29.9 |  | > 100 |  | > 100 | 32 | 31.7 | 29 | 27.8 | > 100 |
| O=C(O)CCC(NC(=O)c1ccc(Nc2nc3cc(C(F)(F)F)ccc3nc2-c2ccccc2)cc1)C(=O)O (stereo not given) |  | > 100 | > 100 | 46.6 |  | > 100 | 53.3 | > 100 | > 100 |  | > 100 |  | > 100 | > 100 |  | > 100 | > 100 | > 100 |
| CN(C)CCC(=O)c1ccccc1 |  | 41 | > 56.2 | > 100 |  | > 68.9 | > 59.1 | 57.8 | 52.7 |  | 69 |  | > 57.2 | 46.9 | 44.7 | > 67.4 | > 68.1 | 38.5 |
| CCCNC(=S)NNC(=O)CSc1nc(-c2ccccc2)c(-c2ccccc2)[nH]1 |  | > 100 | > 100 | > 100 |  |  | > 100 | > 100 | > 100 |  | > 100 |  | > 100 | > 100 | > 100 | > 100 | > 100 | > 100 |
| Cc1ccccc1N1C(=O)C2C=CC(n3[nH]c(=O)n(Cc4ccccc4)c3=O)CC2C1=O (stereo not given) |  | > 100 | > 100 | > 100 |  | > 100 | > 100 | > 100 | > 100 |  | > 100 |  | > 100 | > 100 | > 100 | > 100 | > 100 | > 100 |

— PubChem BioAssay (NCI)
